In patent publication US20050220800A1, “Cytokines and cytokine receptors with reduced immunogenicity” (priority 2002, published 2005):

Tests used:
human CD4+ T-cells [1] = test: I-MUNE assay of soluble human TNF-R1 peptides; type: cell-based; conditions: FIG. 10
Procedure: Peptides for use in the I-MUNE® assay as described in Example 3 were prepared based on the sequence of the soluble human tumor necrosis factor receptor 1 (TNF-R1) (GenBank Accession No. P19438) with the sequence:
The background was determined to be 2.23 and the value for three standard deviations was 8.07. This epitope has the sequence CSLCLNGTVHLSCQE (SEQ ID NO:107). […] This variant was then reported to have a reduced immunogenic capacity when tested in a non-human primate (See, Rosenberg et al., J. Appl. Physiol., 91:2213-2223 [2001]). Thus, it is contemplated that modifications in this epitope will provide advantages in the development of sTNFR-1 for use in treatment.

human CD4+ T-cells [2] = test: I-MUNE assay of human erythropoietin peptides; type: cell-based; conditions: 59 donors; FIG. 11
Procedure: Peptides for use in the I-MUNE® assay as described in Example 3 were prepared based on the sequence of human erythropoietin (EPO), (GenBank Accession No. P1588), with the sequence:
The I-MUNE® assay described in Example 3, was conducted using cells obtained from 59 donors. FIG. 11 provides a graph showing the data obtained in the I-MUNE® assay with the pepset produced from the EPO sequence above (SEQ ID NO:108). […] Peptide #34 has the sequence SGLRSLTTLLRALGA (SEQ ID NO:109), and peptide #48 has the sequence FRVYSNFLRGKLKLY (SEQ ID NO:110). As active mutants have been made in the region represented by peptides #34 and #48 (See, Elliott et al., 89:493-502 [1997]), it is contemplated that amino acid modifications in or around these peptides will provide variant EPO suitable for use as an EPO substitute.

human CD4+ T-cells [3] = test: I-MUNE assay of human thrombopoietin peptides; type: cell-based
Procedure: Peptides for use in the I-MUNE® assay as described in Example 3 were prepared based on the sequence of the first 152 residues of human thrombopoietin (i.e., the active domain of TPO), as well as the entire TPO sequence, including the CHO binding domain (GenBank Accession No. P40225) with the sequence:
The I-MUNE® assay described in Example 3, was conducted using cells obtained from 99 donors. The background was determined to be 2.5, and the standard deviation was 9.2. FIG. 7 provides a graph showing the data obtained in the I-MUNE® assay with the first 152 residues of TPO (i.e., the active domain).
FIG. 8 provides a graph showing the results for the I-MUNE® assay conducted using the entire TPO molecule, including the CHO binding domain.
FIG. 9, Panels A and B provide graphs showing the results for TPO epitope #45, in which the critical residues were tested. The average parental residue response was 9.18±1.82. Values less that 3.5% were equivalent to 3 standard deviations under the averaged response of the parent peptides.

human CD4+ T-cells [4] = test: I-MUNE assay of IFN-β variant peptides; type: cell-based; conditions: for status on additional testing: FIG. 5
Procedure: A set of variant peptides was ordered based on the sequences of peptides #1 (SEQ ID NO:2), #27 (SEQ ID NO:28), and #40 (SEQ ID NO:41). An alanine scan was performed for each peptide. In addition, variant peptides were ordered that corresponded to the peptide sequences as described by Runkel et al., (Runkel et al., Biochem., 39:2538-2551 [2000]). These variant peptides were synthesized by Mimotopes (San Diego, Calif.) using the multi-pin synthesis technique known in the art (See e.g., Maeji et al., J. Immunol. Meth., 134:23-33 [1990]).
The I-IMUNE® assay was performed as described in Example 3, utilizing the variant peptides on a set of 103 donor samples. […] Epitope #40 returned a consistent donor response percent of 15%.

human CD4+ T-cells [5] = test: I-MUNE assay of IFN-β 15mer peptides (T-cell proliferation); type: cell-based; conditions: percent of donors with proliferative response at least 2.95 times baseline; 87 donors; 5 μM peptide
Procedure: Fresh human peripheral blood cells were collected from 87 humans of unknown exposure status to IFN-β. These cells were tested to determine antigenic epitopes in IFN-β, as described in Example 3.
Peripheral mononuclear blood cells (stored at room temperature, no older than 24 hours) were prepared for use as follows: Approximately 30 mls of a solution of buffy coat preparation from one unit of whole blood was brought to 50 ml with Dulbecco's phosphate buffered solution (DPBS) and split into two tubes. The samples were underlaid with 12.5 ml of room temperature Lymphoprep density separation media (Nycomed; Pharma AS; Density 1.077 g/ml). The tubes were centrifuged for thirty minutes at 600×g. The interface of the two phases was collected, pooled and washed in DPBS. The cell density of the resultant solution was measured by hemocytometer, as known in the art. Viability was measured by trypan blue exclusion, as known in the art. […]
CD4+ T cells were prepared from frozen aliquots of the peripheral blood cell samples used to prepare the dendritic cells, using reagents provided by the Dynal CD4+ T-cell enrichment kit (Dynal). The resultant CD4+ cell solution was centrifuged, resuspended in AIMV media and the cell density was determined using methods known in the art. […]

HLA-DR and -DQ antigens = test: HLA association with response to epitope peptide #40; set-up: species or system human; conditions: for percent non-responsive / percent responsive / relative risk: 186 donors
Procedure: The HLA-DR and DQ expression of all the donors tested in both rounds of assay testing described above were assessed using a commercially available PCR-based HLA typing kit (Bio-Synthesis). The phenotypic frequencies of individual HLA-DR and -DQ antigens among responders and non-responders to peptide #40 were tested using a chi-squared analysis with 1 degree of freedom. The increased or decreased likelihood of reacting to epitope #40, the relative risk, was calculated wherever the HLA antigen in question was present in both responding and non-responding donor samples.
A total of 186 donors were completely HLA typed, and were included in the analysis for epitope peptide #40.
The magnitude of the proliferative response to peptide #40 in responders and non-responders expressing HLA-DQ6 was also analyzed. […] As a control, non-responders to the peptide returned the same level of proliferation the peptide regardless of their expression of HLA-DQ6.

Substance: CSLCLNGTVHLSCQE (listed as Homo sapiens) [SEQ ID NO:107]
- epitope identification (human CD4+ T-cells [1]): significant epitope

Substance: FRVYSNFLRGKLKLY (listed as Homo sapiens) [peptide #48]
- epitope identification (human CD4+ T-cells [2]): Epitopes of interest

Substance: RAPPTTAVPSRTSLVLTL (listed as Homo sapiens) [peptide #45]
- response (human CD4+ T-cells [3]; TPO epitope #45 critical residue testing, FIG. 9): 9.18±1.82%
- epitope identification (human CD4+ T-cells [3]; entire TPO molecule, 99 donors, FIG. 8): epitope of interest

Substance: SGLRSLTTLLRALGA (listed as Homo sapiens) [peptide #34]
- epitope identification (human CD4+ T-cells [2]): Epitopes of interest

Substance: peptide #1: 15mer peptide of human IFN-β pepset, SEQ ID NO:2 (MSYNLLGFLQRSSNF)
- status on additional testing (human CD4+ T-cells [4]): non-statistically relevant
- percent response (human CD4+ T-cells [5]): ≥ 9.51%

Substance: peptide #27: 15mer peptide of human IFN-β pepset, SEQ ID NO:28 (WNETIVENLLANVYR)
- status on additional testing (human CD4+ T-cells [4]): non-statistically relevant

Substance: peptide #40: 15mer peptide of human IFN-β pepset, SEQ ID NO:41; identified CD4+ T-cell epitope (SSLHLKRYYGRILHY)
- donor response percent (human CD4+ T-cells [4]; 103 donor samples): 15%
- percent response (human CD4+ T-cells [5]): 18.18%
- magnitude of the proliferative response in responders expressing HLA-DQ6 versus responders not expressing HLA-DQ6 (HLA-DR and -DQ antigens; FIG. 6, responder = stimulation index greater than 2.95): significantly higher
- percent non-responsive (HLA-DR and -DQ antigens; HLA-DQ6): 25%
- percent responsive (HLA-DR and -DQ antigens; HLA-DQ6): 61%
- relative risk (HLA-DR and -DQ antigens; HLA-DQ6): 3.58
- percent non-responsive (HLA-DR and -DQ antigens; HLA-DR1): 3%
- percent responsive (HLA-DR and -DQ antigens; HLA-DR1): 17%
- relative risk (HLA-DR and -DQ antigens; HLA-DR1): 0.19
- percent non-responsive (HLA-DR and -DQ antigens; HLA-DR15): 15%
- percent responsive (HLA-DR and -DQ antigens; HLA-DR15): 39%
- relative risk (HLA-DR and -DQ antigens; HLA-DR15): 2.68
